Measurements taken from US10239887B2, “Positive allosteric modulators of the muscarinic acetylcholine receptor M4” (Vanderbilt University, priority 2016, dated 2019).

Legend:
rat mAChR M4 = target: T1, rat mAChR M4 (Rattus norvegicus, UniProt P08485); assay: mAChR M4 cell-based functional assay (calcium flux), rat M4; design: Emax: dose or concentration left out as unconfirmed; details: for EC50: read-out: Rat M4 EC50, CHO-K1 rM4-Gqi5 cells, calcium flux, increase in EC20 acetylcholine response
T1 sequence (P08485 1-478): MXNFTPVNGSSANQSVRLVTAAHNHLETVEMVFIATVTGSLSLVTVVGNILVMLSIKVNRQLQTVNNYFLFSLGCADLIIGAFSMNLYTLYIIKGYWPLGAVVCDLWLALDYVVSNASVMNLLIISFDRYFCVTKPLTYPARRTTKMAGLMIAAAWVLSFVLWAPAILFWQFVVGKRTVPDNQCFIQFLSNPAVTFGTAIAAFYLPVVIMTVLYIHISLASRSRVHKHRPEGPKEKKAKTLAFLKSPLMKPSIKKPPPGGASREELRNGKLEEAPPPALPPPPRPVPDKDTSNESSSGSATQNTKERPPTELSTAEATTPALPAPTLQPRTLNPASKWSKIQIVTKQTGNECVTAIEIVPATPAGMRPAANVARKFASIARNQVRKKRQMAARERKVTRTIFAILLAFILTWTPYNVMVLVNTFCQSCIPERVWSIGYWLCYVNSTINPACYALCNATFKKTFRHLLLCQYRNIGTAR

human mAChR M4 = target: T2, human mAChR M4 (Homo sapiens, UniProt P08173); assay: mAChR M4 cell-based functional assay (calcium flux), human M4; details: for Emax: Human M4, % ACh maximum at 30 μM; for EC50: Human M4 EC50, CHO-K1 hM4-Gqi5 cells, calcium flux, increase in EC20 acetylcholine response
T2 sequence (P08173 1-479): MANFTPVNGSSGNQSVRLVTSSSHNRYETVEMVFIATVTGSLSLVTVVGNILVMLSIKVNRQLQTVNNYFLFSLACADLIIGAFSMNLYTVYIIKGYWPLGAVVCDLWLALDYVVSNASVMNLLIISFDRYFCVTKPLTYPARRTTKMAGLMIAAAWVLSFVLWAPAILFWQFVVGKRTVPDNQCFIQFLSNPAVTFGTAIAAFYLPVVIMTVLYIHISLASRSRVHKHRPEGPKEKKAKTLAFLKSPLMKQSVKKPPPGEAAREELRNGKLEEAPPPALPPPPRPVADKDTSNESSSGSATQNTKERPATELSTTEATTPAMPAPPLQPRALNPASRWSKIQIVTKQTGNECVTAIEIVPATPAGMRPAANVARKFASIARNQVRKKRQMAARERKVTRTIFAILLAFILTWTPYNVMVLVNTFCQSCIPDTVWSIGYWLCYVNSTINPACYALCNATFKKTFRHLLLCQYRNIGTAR

[1] = test system: amphetamine-induced hyperlocomotion; assay: amphetamine-induced hyperlocomotion in rats; assay type: in vivo, male Sprague-Dawley rats; details: 10 mg/kg p.o.; rat; 1 mg/kg amphetamine s.c.
Procedure: d-Amphetamine hemisulfate was obtained from Sigma (St. Louis, Mo.). Salt-correction was used to determine the correct amount of the d-amphetamine hemisulfate form in milligrams to add to sterile water in order to yield a […] solution, which would be dosed at 1 mL/kg body weight of each animal. […] The solutions were formulated so that animals were injected with a volume equal to 10 mL/kg body weight for all compounds. The appropriate amount according to the dosage was mixed in 10% Tween 80 (Sigma) in sterile water. The mixtures were then vortexed and stored in a 39° C. sonication bath for 1 hour, until in a microsuspension (except for the highest dose, which was a suspension).
Male Sprague-Dawley rats weighing 239-300 grams and averaging 265 g (Harlan, Inc., Indianapolis, Ind.) were used. They were housed in the animal care facility certified by the American Association for the Accreditation of Laboratory Animal Care (AALAC) under a 12-hour light/dark cycle (lights on: 6 a.m.; lights off: 6 p.m.) and had free access to food and water. The animals used in this experiment were food-deprived the evening before experimentation for oral dosing of compound/vehicle. The experimental protocols performed during the light cycle were approved by the Institutional Animals Care and Use Committee of Vanderbilt University and conformed to the guidelines established by the National Research Council Guide for the Care and Use of Laboratory Animals.
Male Harlan Sprague Dawley rats were habituated in Smart Open Field locomotor activity test chambers (Hamilton-Kinder, San Diego, Calif.) with 16×16 photo beams to automatically record locomotor activity. […] They were monitored for an additional 30 minutes and then injected subcutaneously with vehicle or 1 mg/kg amphetamine. Animals were then monitored for an additional 60 minutes, for a total of 120 minutes. Data were expressed as changes in ambulation defined as total number of beam breaks per 5 minute interval. Terminal brain and plasma samples were collected at the end of the study for pharmacokinetic analysis.
Behavioral data were analyzed using a two-way ANOVA with main effects of treatment and time. Post hoc analysis was performed using a Dunnett's t-test with all treatment groups compared to the VAMP group using GraphPad Prism V.5.04 (GraphPad Software, San Diego, Calif.). Data were graphed using GraphPad Prism V.5.04 (GraphPad Software, San Diego, Calif.). A probability of p<0.05 was taken as the level of statistical significance. In addition, the total number of beam breaks from the amphetamine administration (65 min) to the end of the study (120 min) was calculated and graphed. Percent Reversal was calculated as follows using Microsoft Excel: In each animal, total ambulation from t=65 to t=120 was summed. The mean of each sum was calculated in the VAMP group. Then, for each animal, Percent Reversal was calculated with the following formula: Percent Reversal=100−{[(total ambulation in each animal from t=65 to t=120)/(mean of each sum from t=65 to t=120 in VAMP group)]*100}. The mean Percent Reversal, as well as the standard error, was calculated for each dose group using GraphPad Prism V5.04.

Emax (rat mAChR M4) | EC50 (rat mAChR M4) | Emax (human mAChR M4) | EC50 (human mAChR M4) | SMILES | percent reversal of amphetamine-induced hyperlocomotion [1]
86% | 30 nM | 74% | 251 nM | Cc1nnc2sc3c(NC4CN(c5ncc(C(F)(F)F)cn5)C4)ncnc3c2c1C [Compound 7, 3,4-dimethyl-N-(1-(5-(trifluoromethyl)pyrimidin-2-yl)azetidin-3-yl)pyrimido[4′,5′:4,5] thieno[2,3-c]pyridazin-8-amine] | –
58% | 215 nM | 44% | 120 nM | Cc1nnc2sc3c(N4CCCCC4)ncnc3c2c1C [Compound 4, 3,4-dimethyl-8-(piperidin-1-yl)pyrimido[4′,5′:4,5]thieno [2,3-c]pyridazine] | –
57% | 927 nM | 40% | 846 nM | COCCN(C)c1ncnc2c1sc1nnc(C)c(C)c12 [Compound 12, N-(2-methoxyethyl)-N,3,4-trimethylpyrimido [4′,5′:4,5]thieno[2,3-c] pyridazin-8-amine] | –
– | – | – | – | Cc1nnc2sc(C(=O)NCc3ccc(S(=O)(=O)C(F)(F)F)cc3)c(N)c2c1C [VU0467154, reference compound] | 58.9%
86% | 36 nM | 81% | 21 nM | Cc1nnc2sc3c(N4CC5CC5C4)ncnc3c2c1C (centres unmarked) [Compound 10, 8-(3-azabicyclo[3.1.0]hexan-3-yl)-3,4-dimethylpyrimido [4′,5′:4,5]thieno[2,3-c] pyridazine] | –
51% | 2500 nM | 58% | – | Cc1cnc2sc3c(N4CCC4)ncnc3c2c1 [Compound 18, 4-(azetidin-1-yl)-8-methylpyrido[3′,2′:4,5] thieno[3,2-d]pyrimidine] | –
76% | 424 nM | 32% | – | Cc1cnc2sc3c(NC4CN(c5ncc(C(F)(F)F)cn5)C4)ncnc3c2c1 [Compound 17, 8-methyl-N-(1-(5-(trifluoromethyl)pyrimidin-2-yl)azetidin-3-yl)pyrido[3′,2′:4,5] thieno[3,2-d]pyrimidin-4-amine] | –
79% | 724 nM | 62% | 638 nM | Cc1nnc2sc3c(N(C)C)ncnc3c2c1C [Compound 1, N,N,3,4-tetramethylpyrimido[4′,5′:4,5]thieno[2,3-c]pyridazin-8-amine] | –
42% | 700 nM | 30% | 616 nM | Cc1nnc2sc3c(N4CCN(C5CC5)CC4)ncnc3c2c1C [Compound 8, 8-(4-cyclopropylpiperazin-1-yl)-3,4-dimethylpyrimido [4′,5′:4,5]thieno[2,3-c] pyridazine] | –
80% | 112 nM | 73% | – | Cc1nnc2sc3c(NC4CCC4)ncnc3c2c1C [Compound 5, N-cyclobutyl-3,4-dimethylpyrimido[4′,5′:4,5] thieno[2,3-c]pyridazin-8-amine] | –
86% | 231 nM | 73% | 123 nM | Cc1nnc2sc3c(N4CC5(COC5)C4)ncnc3c2c1C [Compound 13, 6-(3,4-dimethylpyrimido [4′,5′:4,5]thieno[2,3-c]pyridazin-8-yl)-2-oxa-6-azaspiro[3.3]heptane] | –
55% | 326 nM | 40% | 257 nM | Cc1nnc2sc3c(N4CCC(N(C)C)C4)ncnc3c2c1C (centres unmarked) [Compound 11, 1-(3,4-dimethylpyrimido [4′,5′:4,5]thieno[2,3-c]pyridazin-8-yl)-N,N-dimethylpyrrolidin-3-amine] | –
62% | 836 nM | 52% | 724 nM | Cc1nnc2sc3c(NC4CCCCC4)ncnc3c2c1C [Compound 2, N-cyclohexyl-3,4-dimethylpyrimido[4′,5′:4,5] thieno[2,3-c] pyridazin-8-amine] | –
82% | – | 68% | – | Cc1nnc2sc3c(N4CCCC4)ncnc3c2c1C [Compound 6, 3,4-dimethyl-8-(pyrrolidin-1-yl)pyrimido[4′,5′:4,5]thieno [2,3-c]pyridazine] | –
40% | 185 nM | 62% | – | Cc1nnc2sc3c(N4CC(c5ccncc5)C4)ncnc3c2c1C [Compound 24, 3,4-dimethyl-8-(3-(pyridin-4-yl)azetidin-1-yl)pyrimido[4′,5′:4,5] thieno[2,3-c]pyridazine] | –
75% | – | 68% | 351 nM | Cc1nnc2sc3c(N4CCC4)ncnc3c2c1C [Compound 9, 8-(azetidin-1-yl)-3,4-dimethylpyrimido [4′,5′:4,5]thieno[2,3-c] pyridazine] | –
75% | – | 62% | – | COCC1CN(c2ncnc3c2sc2nnc(C)c(C)c23)C1 [Compound 14, 8-(3-(methoxymethyl)azetidin-1-yl)-3,4-dimethylpyrimido [4′,5′:4,5]thieno[2,3-c] pyridazine] | –
